Laboratory results published in patent publication US8143025B2, “Antibodies against vascular endothelial growth factor receptor-1” (ImClone LLC, priority 2004, dated 2012).

Columns and labels:
Type in all cases: in vivo, mouse
MDA-MB-231 xenograft = assay: MDA-MB-231 breast tumor xenograft
Procedure: Mice in control groups received an equal volume of saline solution. Treatment of animals was continued for the duration of the experiment. Tumors were measured twice each week with calipers. Tumor volumes were calculated using the formula [π/6 (w1×w2×w2)], where “w1” represents the largest tumor diameter and “w2” represents the smallest tumor diameter. […] When tumors reached approximately 200-300 mm^3, mice were randomized by tumor size and divided into treatment groups. Tumor growth was evaluated approximately twice weekly, with tumor volume calculated as π/6* (Length*Width^2), where Length=longest diameter and Width=diameter perpendicular to Length. Tumor dimensions were measured with calipers. T/C % was calculated as 100*(Final Treatment Tumor Volume/Initial Treatment Tumor Volume)/(Final Control Tumor Volume/Initial Control Tumor Volume). […] The effect of treatment on tumor growth was analyzed using repeated measures analysis of variance (RM ANOVA), p<0.05 was considered significant. […] Antibody treatments administered at a constant dose per mouse were administered in a volume of 0.5 mL per mouse. Antibody and cytotoxic treatments administered at a dose proportional to body weight were given in a volume of 10 μL per gram body weight. […] AU treatments were administered i.p. The effect of treatments on tumor growth were analyzed using repeated measures analysis of variance (RM ANOVA), p<0.05 was considered significant.

MDA-MB-435 xenograft = assay: MDA-MB-435 breast tumor xenograft
Procedure: Athymic nude mice (Charles River Laboratories, Wilmington, Mass.) were injected subcutaneously in the left flank area with 2×10^6 of DU4475 cells or 5×10^6 of MDA-MB-231 and MDA-MB-435 cells mixed in Matrigel (Collaborative Research Biochemicals. Bedford, Mass.). In the DU4475 and MDA-MB-231 models, tumors were allowed to reach approximately 200 mm^3 in size and then mice were randomized into groups of 12-16 animals per group. Animals received i.p. administration of the anti-VEGFR-I antibody clones 6F9, 15F11, or 18F1 at a dose of 0.5 mg (MDA-MB-231) or 1 mg (DU4475) three times each week. In the MDA-MB-435 model, the tumor cells were implanted subcutaneously into mammary fat pad area in the mouse. After tumors grew to reach approximately 200 mm^3 in size, mice were randomized into groups of 15 animals per group and intraperitoneally administered with 0.5 mg per dose of 18F1 antibody three times each week. Mice in control groups received an equal volume of saline solution. Treatment of animals was continued for the duration of the experiment. Tumors were measured twice each week with calipers. Tumor volumes were calculated using the formula [π/6 (w1×w2×w2)], where “w1” represents the largest tumor diameter and “w2” represents the smallest tumor diameter. […] Tumor growth was evaluated approximately twice weekly, with tumor volume calculated as π/6* (Length*Width^2), where Length=longest diameter and Width=diameter perpendicular to Length. Tumor dimensions were measured with calipers. T/C % was calculated as 100*(Final Treatment Tumor Volume/Initial Treatment Tumor Volume)/(Final Control Tumor Volume/Initial Control Tumor Volume). […] The effect of treatment on tumor growth was analyzed using repeated measures analysis of variance (RM ANOVA), p<0.05 was considered significant. […] AU treatments were administered i.p. The effect of treatments on tumor growth were analyzed using repeated measures analysis of variance (RM ANOVA), p<0.05 was considered significant.

DLD-I xenograft = assay: DLD-I colon cancer xenograft; conditions: monotherapy, FIG. 26B
Procedure: (§1) Female athymic nu/nu mice, 6-8 weeks of age, were injected subcutaneously on the lateral dorsal surface with 0.4 mL volume of a suspension containing a human tumor cell line in media, diluted 1:1 with MATRIGEL™ (BD Biosciences). The cell lines used in xenograft models, with the cell doses indicated in parenthesis (10^6 cells/mouse), were: human colon carcinoma cell lines DLD-I (5), GEO (5) and HT-29 (5); human breast carcinoma cell lines DU4475 (2), MDA-MB-231 (5), MDA-MB-435 (5), and BT474 (5). When tumors reached approximately 200-300 mm^3, mice were randomized by tumor size and divided into treatment groups. Tumor growth was evaluated approximately twice weekly, with tumor volume calculated as π/6* (Length*Width^2), where Length=longest diameter and Width=diameter perpendicular to Length. Tumor dimensions were measured with calipers. T/C % was calculated as 100*(Final Treatment Tumor Volume/Initial Treatment Tumor Volume)/(Final Control Tumor Volume/Initial Control Tumor Volume).
(§2) 18F1 was diluted in 0.9% USP saline (Braun) or phosphate buffered saline (PBS) and administered intraperitoneally in a volume of 0.5 mL per mouse. The effect of treatment on tumor growth was analyzed using repeated measures analysis of variance (RM ANOVA), p<0.05 was considered significant.

GEO xenograft = assay: GEO colon cancer xenograft; conditions: monotherapy, FIG. 26C
Procedure: as §1, §2

MDA-MB-231 xenografts = assay: Immunohistochemistry and TUNEL of MDA-MB-231 xenografts
Procedure: Paraffin-embedded MDA-MB-231 xenografts were evaluated immunohistochemically for markers of tumor cell proliferation, survival, and apoptosis. Markers of proliferation and survival included Ki-67 (rabbit pAb; Lab Vision Corporation, Fremont, Calif.), phospho-specific p44/42 MAPK (Thr202/Tyr204) (rabbit pAb; Cell Signaling Technology) and phospho-specific Akt (Ser473) (rabbit pAb; Cell Signaling Technology). The EnVision+ System for rabbit antibodies (DAKO Cytomation, Carpenteria, Calif.) was used with 3,3′ diaminobenzidine (DAB) as the chromagen, per kit instructions. After brief counterstaining in Mayer's hematoxylin all sections were dehydrated, cleared and coverslipped using a permanent mounting medium. Tumor apoptosis was assessed by TUNEL assay using ApopTag® Peroxidase In Situ Apoptosis Detection Kit (Chemicon, Temecula, Calif.) per kit instructions. Stained sections were coverslipped with Gelmount (Biomeda, Foster City, Calif.). Positive immunostaining and TUNEL positive […] were analyzed and imaged using an Axioskop light microscope with an Axiocam digital camera (Carl Zeiss, Germany).

[1] = after 1 week, 0.5 mg/dose M-W-F
[2] = after 14 days, 20 mg/kg 2x/week

## 18F1: human anti-VEGFR-1 monoclonal antibody clone; VL SEQ ID NO: 16, VH SEQ ID NO: 20 [Clone 18F1]
MDA-MB-231 xenograft; 0.5 or 1 mg per dose three times each week, ANOVA p<0.05, FIG. 20B
  tumor growth of the MDA-MB-231 xenograft: statistically significant suppression
MDA-MB-231 xenograft; Example 9, intraperitoneal, p<0.05
  growth of MDA-MB-231 xenograft tumors: significantly (p<0.05) suppressed
MDA-MB-231 xenograft; Example 11, p<0.05, FIG. 28A
  tumor growth inhibition, MDA-MB-231 xenograft: significant tumor growth inhibition
MDA-MB-435 xenograft; 0.5 or 1 mg per dose three times each week, ANOVA p<0.05, FIG. 20C
  tumor growth of the MDA-MB-435 xenograft: statistically significant suppression
MDA-MB-435 xenograft; Example 9, intraperitoneal, p<0.05, FIG. 25B
  growth of MDA-MB-435 xenograft tumors: significantly (p<0.05) suppressed
DLD-I xenograft
  antitumor effect against DLD-I colon cancer xenografts: significant antitumor effect
GEO xenograft
  antitumor effect against GEO colon cancer xenografts: significant antitumor effect
MDA-MB-231 xenografts; [1]
  Akt phosphorylation: significant decrease
  apoptosis as measured by TUNEL positive events: increase
MDA-MB-231 xenografts; [2]
  activation of MAPK: marked decrease
  marker for proliferating cells (Ki-67): significantly reduced
